This note sets out measurements from PubChem BioAssay (NCI).

Several values for one entry are separate records, joined by “and”; a condition that tells them apart may be missing. Equal values may be shown once.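 Each compound was tested at five concentrations against cells in 96-well plates for 48 hours. Abbreviation: GI50, concentration required for 50% inhibition of growth. At the TGI there is no net growth.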

Among the test systems are A549 NSCLC; MDA-MB-435; MOLT-4 leukemia; KM12 colon; NCI/ADR-RES ovarian; HOP-92 NSCLC; LOX IMVI melanoma; NCI-H23 lung; MCF7 breast; SNB-19 CNS; SK-MEL-2 melanoma; NCI-H226 lung.
What all share (test): growth of human tumour cells (NCI), 48 h

For `COc1cc(O)c(C(=O)/C=C/c2ccc(O)cc2)cc1Oc1ccc(C(=O)/C=C/c2ccc(O)cc2)c(O)c1`, the TGI with A549 NSCLC is 15.3 µM; in the test on MDA-MB-435 it was 11.8 µM; with MOLT-4 leukemia it was over 100 µM; in the test with KM12 colon it was 3.18 µM; in the test with NCI/ADR-RES ovarian, 9.55 µM; in the test on HOP-92 NSCLC, 24.9 µM. In addition, the TGI with LOX IMVI melanoma was determined as 10.7 µM; in the test on NCI-H23 lung it was 8.88 µM; in the test on MCF7 breast, 13.5 µM; with SNB-19 CNS, 25.1 µM; with SK-MEL-2 melanoma, 14.7 µM.

On to `NC12c3c4cccc3Oc3cccc(c31)Oc1cccc(c12)O4`, for which the TGI in the test on A549 NSCLC, with MDA-MB-435, in the test on MOLT-4 leukemia, in the test on KM12 colon, in the test on NCI/ADR-RES ovarian and in the test with HOP-92 NSCLC was over 50 µM throughout. Moreover, the TGI with NCI-H23 lung, in the test on MCF7 breast, with SNB-19 CNS, in the test with NCI-H226 lung and in the test with SK-MEL-2 melanoma was over 50 µM throughout.

Turning to `Cc1cccc(Nc2cn(CCOc3ccccc3)c(=O)[nH]c2=O)c1`, the TGI with A549 NSCLC was 61.9 µM; in the test with MDA-MB-435 it was over 100 µM; with MOLT-4 leukemia it was over 100 µM; in the test on KM12 colon, over 100 µM; in the test with NCI/ADR-RES ovarian it was 9.06 µM; in the test with HOP-92 NSCLC it was 84 µM. In addition, the TGI with LOX IMVI melanoma is 94 µM; with NCI-H23 lung, over 100 µM; with MCF7 breast, over 100 µM; with SNB-19 CNS, over 100 µM.

As for `CC(=O)NC1C(OCC(=O)NC(C)C(=O)NC(CCC(=O)NCCCCCNc2ccc([N+](=O)[O-])c3[nH]c4ccccc4c(=O)c23)C(N)=O)C(O)C(CO)OC1(C)OCc1ccccc1` (stereo not given), the TGI with A549 NSCLC, with MDA-MB-435, in the test on MOLT-4 leukemia, in the test with KM12 colon, in the test on NCI/ADR-RES ovarian and with LOX IMVI melanoma was over 50 µM each time. For the same compound, the TGI in the test with NCI-H23 lung, with MCF7 breast, in the test on SNB-19 CNS, in the test on NCI-H226 lung and in the test with SK-MEL-2 melanoma was over 50 µM in each case.

Turning to `N=C(/C=C/c1ccc(-c2cn3cc(/C=C/C(=N)N4CCOCC4)ccc3n2)cc1)N1CCOCC1`, the TGI in the test on A549 NSCLC, with MDA-MB-435, in the test on KM12 colon, in the test with NCI/ADR-RES ovarian, with HOP-92 NSCLC and in the test on NCI-H23 lung was over 100 µM in each case. Further, the TGI in the test on MCF7 breast, in the test with SNB-19 CNS, in the test on NCI-H226 lung and in the test on SK-MEL-2 melanoma was over 100 µM throughout.

Take `c1ccc(/C(=N/Nc2cnccn2)c2ncccn2)cc1`: the TGI with A549 NSCLC, with MDA-MB-435, in the test with MOLT-4 leukemia, with KM12 colon, in the test on NCI/ADR-RES ovarian and in the test on HOP-92 NSCLC was over 100 µM each time. Further, the TGI in the test with NCI-H23 lung, with MCF7 breast, in the test with SNB-19 CNS and in the test on SK-MEL-2 melanoma was over 100 µM each time.

As to `COc1ccc2cc(C(=O)NCCc3ccccc3)ccc2c1OC`, the TGI in the test on A549 NSCLC, with MDA-MB-435, in the test with MOLT-4 leukemia, with NCI/ADR-RES ovarian, in the test with HOP-92 NSCLC and with LOX IMVI melanoma was over 100 µM in each case. For the same compound, the TGI with NCI-H23 lung, in the test on MCF7 breast, in the test with SNB-19 CNS, in the test on NCI-H226 lung and in the test on SK-MEL-2 melanoma was over 100 µM each time.

Consider `CCOC(=O)Nc1ccc(S(=O)(=O)Nc2ccc(Br)cc2)cc1`, for which the TGI in the test with A549 NSCLC, in the test on MDA-MB-435, with MOLT-4 leukemia, in the test on KM12 colon, with NCI/ADR-RES ovarian and in the test with HOP-92 NSCLC was over 100 µM each time. The TGI is over 100 µM with LOX IMVI melanoma; over 100 µM in the test with NCI-H23 lung; 75.7 µM in the test on MCF7 breast; over 100 µM in the test with SNB-19 CNS; over 100 µM in the test with SK-MEL-2 melanoma.

As for `COC(=O)CP1(=O)OC2C(C3CCC2(C)C3(C)C)N1c1cc(C(F)(F)F)cc(C(F)(F)F)c1` (stereo not given), the TGI was over 100 µM in the test on A549 NSCLC; 60.6 µM in the test on MDA-MB-435; 59 µM with MOLT-4 leukemia; 54.7 µM in the test with KM12 colon; 55.9 µM in the test on NCI/ADR-RES ovarian; 49 µM in the test with LOX IMVI melanoma. For the same compound, the TGI in the test on NCI-H23 lung was 86.3 µM; in the test with MCF7 breast, over 100 µM; in the test on SNB-19 CNS, over 100 µM; in the test on NCI-H226 lung it was 71.7 µM; with SK-MEL-2 melanoma, 46.4 µM.

Take `CC(=O)c1ccc2c(c1)CC1(C2)Cc2cc3c(cc2C1)C(=O)CC3` (stereo not given): the TGI worked out at 29.2 µM in the test with A549 NSCLC; 0.636 µM in the test with MDA-MB-435; 7.83 µM in the test on KM12 colon; 17.2 µM in the test on NCI/ADR-RES ovarian; 32.8 µM with HOP-92 NSCLC; 28.8 µM with LOX IMVI melanoma. Further, the TGI in the test with NCI-H23 lung was 14.7 µM; in the test with MCF7 breast, 26.4 µM; in the test on SNB-19 CNS it was over 100 µM; with NCI-H226 lung, 2.33 µM; with SK-MEL-2 melanoma, 5.75 µM.

Take `CC(=O)OCC1OC(n2c(-c3ccccc3)c(N=Nc3ccc(Cl)cc3)c(C)c(C#N)c2=S)C(OC(C)=O)C(OC(C)=O)C1OC(C)=O` (stereo not given): the GI50 was 6.86 µM and 22.1 µM in the test on A549 NSCLC; 9.22 µM and 85.4 µM in the test on KM12 colon; 6.76 µM and 33.2 µM with NCI/ADR-RES ovarian; 11.2 µM and > 100 µM in the test on LOX IMVI melanoma; 2.75 µM and 22.3 µM in the test with NCI-H23 lung; 10.2 µM and 28.2 µM in the test on MCF7 breast. The GI50 in the test with SNB-19 CNS was 4.48 µM and 34.1 µM. Moreover, the TGI in the test with A549 NSCLC is over 100 µM; with MDA-MB-435 it was 41.1 µM and > 100 µM; with MOLT-4 leukemia, 21.5 µM and > 100 µM; in the test on KM12 colon, 24.4 µM and > 100 µM; in the test on NCI/ADR-RES ovarian, over 100 µM; in the test on LOX IMVI melanoma, 43.3 µM and > 100 µM. Besides, the TGI is 14.9 µM and > 100 µM in the test on NCI-H23 lung; 24.4 µM and > 100 µM in the test with MCF7 breast; 33.3 µM and > 100 µM in the test with SNB-19 CNS; 39.6 µM and > 100 µM in the test on SK-MEL-2 melanoma.

On to `C=C1C(=O)O[C@H]2C1C[C@@H](O)[C@@]1(C)OC1CC[C@@]1(C)O[C@H]21` (stereo not given in full), for which the TGI in the test with A549 NSCLC was over 100 µM; in the test with MDA-MB-435 it was 60 µM; with MOLT-4 leukemia, 24.8 µM; in the test with KM12 colon it was 53.2 µM; in the test on NCI/ADR-RES ovarian it was 64 µM; in the test with HOP-92 NSCLC, 32.6 µM. In addition, the TGI is 27.5 µM with LOX IMVI melanoma; 37.4 µM in the test with NCI-H23 lung; 29 µM in the test with MCF7 breast; over 100 µM in the test on SNB-19 CNS; 47.1 µM with SK-MEL-2 melanoma.
